Measured values: patent US20260193293A1, “PEPTIDES CAPABLE OF INHIBITING PROTEIN-PROTEIN INTERACTIONS AT GABAB1A SUBUNIT AND USES THEREOF” (UNIVERSITY OF COPENHAGEN, priority 2022, published 2026)
Read-outs that look alike come from different tables or passages of the source. Non-standard residues stand in square brackets, D forms with d. Residues, ends and D or L forms follow the SMILES beside them. 2Nal = N[C@@H](Cc1ccc2ccccc2c1)C(=O)O

Legend:
SD1/2 = test: Solution array of crude APPWT variants, six-point FP inhibition curve; type: binding; settings: crude peptides of the solution array
Method: Parallel synthesis in 96 format peptide synthesis was done using Intavis multipep RSi instrument. Fmoc-PAL resins was used (10 mg per well). Fmoc-amino acids (Fmoc-AA) were dissolved in dimethylformamide (DMF) containing 0.3 M OxymaPure. Throughout the synthesis Fmoc-AA were preactivated with diisopropylcarbodiimide (DIC) for 2 min before adding to the resin. Three couplings using 100 μL Fmoc-AA and 10 μL DIC (3 M in DMF) pr well were employed with coupling times of 5, 15 and 60 min. Removal of Fmoc was performed by washing twice with 120 μl per well of 25% piperidine in DMF for 2 and 8 min. Washing steps after deprotection with piperidine and after coupling steps included washing with DMF (150 μL per well) five times. After synthesis the resins were dried with ethanol and trifluoroacetic acid (TFA) was added using 92% TFA containing 4% triisopropylsilane (TIPS), 1% thioanisol, and 3% H2O for 2 hours. This was done by adding 100 μL per well of the TFA cleavage cocktail over a period of 30 min adding up to a total volume of 1 mL to each well. TFA was then reduced in volume to approximately 100-150 μL by N2 flow and peptides were precipitated by the addition 800 μL of diethylether to each well. The peptides were transferred to Waters solvinert plates and washed thoroughly five times with diethylether 500 μL per well. After washing, the peptides were dried and then dissolved in 80% DMSO. Characterization was performed by UPLC-MS on a setup consisting of a Waters Acquity UPLC system connected to an LCT Premier XE mass spectrometer from Micromass using solvent A 0.1% TFA in H2O and solvent B 0.1% TFA in CH3CN.
We synthesized additional positional scanning array (termed solution array) of APPWT using the conventional on-resin SPPS strategy in 96-well plates. This solution array contained 268 peptides (including two wild type peptides). […] Taking advantage of the high purity of this peptide array, we generated six-point FP inhibition curve of each peptide and the obtained dose response curves enabled us to calculate the binding affinity (Ki) of each peptide variant (data not shown).

[1] = target: Sushi domains (SD1/2) protein; test: Fluorescence polarization (FP) competition assay with AJAP-1probe, calculated Ki; type: binding
In short: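 Competition against 25 nM TAMRA-labelled peptide probe binding SD1/2, in PBS pH 7.4 with 1% BSA at rt, read at 530/580 nm. IC50 from sigmoidal dose-response fits, at least triplicate; Ki calculated from IC50 using probe Kd from saturation binding.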

GB1a/2 receptors = target: T1, GB1a/2 receptors (Homo sapiens, UniProt Q9UBS5); test: SRE-Luciferase accumulation assay; type: cell-based; settings: in the absence of AJAP-1
T1 construct: Flag; expressed in transfected cells; host or cells: HEK293T cells stably expressing chimeric Gαq/i
T1 sequence (Q9UBS5 15-961 limits assumed): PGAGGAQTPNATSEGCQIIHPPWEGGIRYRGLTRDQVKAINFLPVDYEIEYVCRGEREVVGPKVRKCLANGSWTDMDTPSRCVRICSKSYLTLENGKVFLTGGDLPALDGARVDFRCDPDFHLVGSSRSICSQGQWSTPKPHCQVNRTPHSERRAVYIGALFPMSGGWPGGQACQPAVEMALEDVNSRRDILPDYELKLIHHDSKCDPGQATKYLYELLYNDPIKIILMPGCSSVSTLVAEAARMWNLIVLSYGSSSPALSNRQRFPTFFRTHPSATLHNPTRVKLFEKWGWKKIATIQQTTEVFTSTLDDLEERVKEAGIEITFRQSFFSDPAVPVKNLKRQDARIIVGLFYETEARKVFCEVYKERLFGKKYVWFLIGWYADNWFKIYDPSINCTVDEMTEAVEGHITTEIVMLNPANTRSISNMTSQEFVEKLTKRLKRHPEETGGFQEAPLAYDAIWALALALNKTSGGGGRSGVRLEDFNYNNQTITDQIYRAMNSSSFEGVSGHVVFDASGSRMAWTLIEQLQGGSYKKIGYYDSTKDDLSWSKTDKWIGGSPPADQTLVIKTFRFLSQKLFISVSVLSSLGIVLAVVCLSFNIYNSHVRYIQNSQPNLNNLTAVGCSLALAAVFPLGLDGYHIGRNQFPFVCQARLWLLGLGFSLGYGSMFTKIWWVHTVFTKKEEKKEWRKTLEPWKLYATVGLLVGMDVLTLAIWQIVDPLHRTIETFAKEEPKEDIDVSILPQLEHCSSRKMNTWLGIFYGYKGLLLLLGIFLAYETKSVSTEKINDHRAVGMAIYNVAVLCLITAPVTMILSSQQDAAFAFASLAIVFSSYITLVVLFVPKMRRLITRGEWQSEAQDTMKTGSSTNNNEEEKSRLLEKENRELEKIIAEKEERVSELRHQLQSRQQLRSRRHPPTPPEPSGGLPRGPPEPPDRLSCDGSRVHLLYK
T1 sequence (O75899 42-941 partner): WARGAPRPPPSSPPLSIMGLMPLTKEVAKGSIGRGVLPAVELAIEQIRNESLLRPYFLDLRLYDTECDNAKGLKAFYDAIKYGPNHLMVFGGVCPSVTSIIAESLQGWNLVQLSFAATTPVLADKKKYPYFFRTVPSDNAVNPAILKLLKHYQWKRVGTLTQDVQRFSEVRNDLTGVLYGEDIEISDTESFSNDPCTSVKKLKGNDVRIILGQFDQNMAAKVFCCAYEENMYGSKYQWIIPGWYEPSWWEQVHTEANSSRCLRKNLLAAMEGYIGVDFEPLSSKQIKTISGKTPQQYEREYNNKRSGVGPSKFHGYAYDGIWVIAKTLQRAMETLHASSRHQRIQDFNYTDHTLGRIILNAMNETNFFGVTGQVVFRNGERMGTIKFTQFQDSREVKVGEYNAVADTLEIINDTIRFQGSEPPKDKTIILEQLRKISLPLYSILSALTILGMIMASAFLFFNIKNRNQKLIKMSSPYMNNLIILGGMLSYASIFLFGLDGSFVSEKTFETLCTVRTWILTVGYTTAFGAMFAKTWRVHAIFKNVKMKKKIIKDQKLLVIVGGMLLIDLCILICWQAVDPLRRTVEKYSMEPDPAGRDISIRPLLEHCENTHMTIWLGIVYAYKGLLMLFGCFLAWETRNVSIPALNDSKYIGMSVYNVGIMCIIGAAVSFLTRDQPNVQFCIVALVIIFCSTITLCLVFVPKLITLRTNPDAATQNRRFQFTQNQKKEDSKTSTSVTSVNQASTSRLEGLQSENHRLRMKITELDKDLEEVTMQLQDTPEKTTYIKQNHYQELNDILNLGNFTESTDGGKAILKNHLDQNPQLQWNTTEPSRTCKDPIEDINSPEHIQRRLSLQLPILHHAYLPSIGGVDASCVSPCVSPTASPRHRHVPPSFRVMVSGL
Description: (§1) To elucidate whether our developed peptides AJAP-1WT, 16 and 20 could interact and disrupt the trans-interaction between AJAP-1 and GB1a/2Rs, we used an established accumulation assay based on coupling GB1a/2Rs to phospholipase C (PLC) via chimeric Gαqi (Conklin et al. 1993). PLC activity is then monitored with a serum responsive element-luciferase (SRE-Luciferase) reporter amplifying the GB1a/2Rs response (Yoo et al. 2017) (FIG. 5).
(§2) HEK293T cells stably expressing Gαq/i were transiently transfected with Flag-GB1a, Flag-GB2 and SRE-FLuc with or without AJAP-1. In order to ensure GB1a/2 binding of AJAP-1 in trans, a pool of HEK293T-Gαq/i cells expressing AJAP-1 was mixed with HEK293-Gαq/i cells expressing Flag-GB1a, Flag-GB2 and SRE-FLuc. Transfected cells were distributed into 96-well microplates (Greiner Bio-One) at a density of 80,000 cells/well. After 24 h, the culture medium was replaced with Opti-MEM™-GlutaMAX™ Peptides were incubated in Opti-MEM™-GlutaMAX™ for 10 minutes. In presence of peptide, GB1a/2 receptors were activated with various concentrations of GABA for 6 h. FLuc activity in lysed cells was measured using the Luciferase® Assay Kit (Promega) and a Spark® microplate reader. Luminescence signals were adjusted by subtracting the luminescence obtained when expressing SRE-FLuc fusion proteins alone.

[2] = target: T2, GB1a/2 receptors in presence of AJAP-1 in trans (Homo sapiens, UniProt Q9UBS5); test: SRE-Luciferase accumulation assay; type: cell-based; settings: 10 μM peptide; for basal activity of GB1a/2Rs: in presence of AJAP-1 in trans
T2 construct: Flag; expressed in transfected cells; host or cells: HEK293T cells stably expressing chimeric Gαq/i
T2 sequence (Q9UBS5 15-961 limits assumed): as the sequence (Q9UBS5 15-961 limits assumed) above
T2 sequence (O75899 42-941 partner): as the sequence (O75899 42-941 partner) above
Description: as §1, §2

GB1a subunit = target: T3, GB1a subunit (Mus musculus, UniProt Q9WV18); test: Pull-down from mouse brain membrane fraction, immunoblotting; type: binding; settings: immobilized peptides, whole-brain lysate
T3 construct: using the homogenized membrane fraction of wild type mouse brains; from tissue; host or cells: adult mouse brain, solubilized membrane-enriched fraction
T3 sequence (Q9WV18 20-960): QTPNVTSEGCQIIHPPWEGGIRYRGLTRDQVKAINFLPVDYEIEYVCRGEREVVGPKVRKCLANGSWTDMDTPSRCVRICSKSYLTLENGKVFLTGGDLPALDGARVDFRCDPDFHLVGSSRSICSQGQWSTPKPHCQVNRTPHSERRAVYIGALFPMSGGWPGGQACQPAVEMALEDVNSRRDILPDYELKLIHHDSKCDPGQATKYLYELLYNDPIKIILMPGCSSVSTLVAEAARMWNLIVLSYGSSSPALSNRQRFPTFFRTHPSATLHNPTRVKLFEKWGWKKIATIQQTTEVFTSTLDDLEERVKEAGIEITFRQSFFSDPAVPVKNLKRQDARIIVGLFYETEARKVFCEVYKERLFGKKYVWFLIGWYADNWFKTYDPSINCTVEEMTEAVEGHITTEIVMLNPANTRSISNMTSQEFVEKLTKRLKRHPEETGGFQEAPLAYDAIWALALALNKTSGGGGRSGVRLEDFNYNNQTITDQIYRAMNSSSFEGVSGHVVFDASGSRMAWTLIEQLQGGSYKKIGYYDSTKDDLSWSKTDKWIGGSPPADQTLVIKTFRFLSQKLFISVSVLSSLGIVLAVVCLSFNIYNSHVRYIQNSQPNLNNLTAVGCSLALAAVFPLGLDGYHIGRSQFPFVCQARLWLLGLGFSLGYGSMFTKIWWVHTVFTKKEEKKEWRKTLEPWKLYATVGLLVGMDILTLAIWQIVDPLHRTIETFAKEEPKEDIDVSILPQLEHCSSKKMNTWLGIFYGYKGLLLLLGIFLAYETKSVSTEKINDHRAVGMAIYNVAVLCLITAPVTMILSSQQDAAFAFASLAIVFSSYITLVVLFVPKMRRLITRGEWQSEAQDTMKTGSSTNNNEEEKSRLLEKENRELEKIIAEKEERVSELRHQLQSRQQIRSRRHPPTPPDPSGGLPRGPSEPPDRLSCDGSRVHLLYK
Method: Covalent immobilization of peptides. Peptides AJAP-1WT, 17 and 20 comprising a C-terminal Cys and a PEG2 linker, were loaded covalently to Dynabeads M-270 Epoxy beads (Thermo Fischer Scientific) according to the protocol of the manufacturer. 25 μL DMSO stocks of peptides (10 mM) were diluted 15 times into 350 μL coupling buffer (100 mM PBS buffer containing 2 M […] and 10 mM TCEP, PH=7.4) and agitated overnight at 37° C. with Dynabeads M-270 Epoxy beads (5 mg, ~3.3×10^8 beads), which had been washed and equilibrated with coupling buffer before. After removing excess peptides, the Dynabeads M-270 Epoxy beads were washed three times and equilibrated with 100 mM PBS buffer, pH=7.4 and stored at 4° C.
Preparation of whole-brain lysates. Dissected adult mouse brains were placed in ice-cold homogenization buffer (320 mM sucrose, 4 mM HEPES, PH 7.5, 1 mM EDTA, 1 mM EGTA, supplemented with complete EDTA-free protease inhibitor mixture (Roche), 1 mL per 100 mg of brain) and homogenized with a glass-Teflon homogenizer (40 passes) on ice. The homogenized material was cleared by centrifugation at 500×g (4° C., 15 min). […]

[3] = In vitro plasma stability; settings: human, plasma
Method: (§3) For time-course assay, 360 μL human plasma was pre-warmed up at 37° C. for 15 min and then spiked with 40 μL of tested peptides (1 mM in 1×PBS). […] Subsequently, 100 μL acetonitrile was added into and then samples were incubated overnight at −20° C. After that, all samples were centrifuged at 13,400 rpm for 10 min and the supernatant was filtered and then analyzed by LC-MS and UPLC (Waters). The area under the curve (AUC) was determined and normalized to the value of the first time point. The half-life (T1/2) was obtained by fitting the data to the one-phase decay equation in GraphPad Prism 9 and expressed as the mean of three individual experiments. For end-point assay, 108 μL human plasma was pre-warmed up at 37° C. for 15 min and then spiked with 12 μL of tested peptides (1 mM in 1×PBS).

[4] = human, plasma
Method: as §3

[5] = purified peptides, read-out: Ki
[6] = Table 1, affinity maturation, mean ± SEM, n ≥ 3, read-out: Ki

Q: With `CC(=O)N[C@@H](CCC(=O)O)C(=O)N[C@@H](CC(=O)O)C(=O)N[C@@H](CC(=O)O)C(=O)N[C@@H](CO)C(=O)N[C@@H](Cc1c[nH]c2ccccc12)C(=O)N[C@H](C(=O)N[C@@H](Cc1c[nH]c2ccccc12)C(=O)N[C@@H](Cc1c[nH]c2ccccc12)C(=O)NCC(=O)NCC(=O)N[C@@H](C)C(=O)N[C@@H](CC(=O)O)C(=O)N[C@H](C(=O)N[C@@H](CC(=O)O)C(N)=O)[C@@H](C)O)C(C)C` (Ac-EDDSWVWWGGADTD-NH2) as the compound, how does the Ki (SD1/2) read?
A: 78 nM

Q: And the Ki [1, 5]?
A: 100 nM

Q: Which results are given for `CC[C@H](C)[C@H](NC(=O)[C@H](CC(=O)O)NC(=O)[C@H](CC(=O)O)NC(=O)[C@H](Cc1ccc(O)cc1)NC(=O)[C@H](CC(=O)O)NC(=O)[C@H](CC(=O)O)NC(=O)[C@H](CO)NC(=O)[C@H](CC(=O)O)NC(=O)[C@H](CCC(=O)O)NC(=O)[C@H](Cc1ccc2ccccc2c1)NC(C)=O)C(=O)N[C@@H](CC(=O)O)C(=O)N[C@@H](CC(=O)O)C(=O)N[C@@H](CC(=O)O)C(=O)N[C@@H](Cc1c[nH]c2ccccc12)C(N)=O` [Scr-20, reference compound] (Ac-[2Nal]EDSDDYDDIDDDW-NH2)?
A: Emax values of GABA-activated GB1a/2Rs (GB1a/2 receptors): did not affect the Emax values; basal activity of GB1a/2Rs [2]: significant decreased basal activity; pull-down of native GB1a (GB1a subunit): did not interact with the GB1a subunit; Ki ([1]; Table 16, ncAAs incorporated peptides, read-out: Ki (nM) mean ± SEM): 31200 ± 989 nM

Q: For `CC(=O)N[C@@H](CCC(=O)O)C(=O)N[C@@H](CC(=O)O)C(=O)N[C@@H](CC(=O)O)C(=O)N[C@@H](CO)C(=O)N[C@@H](CC(=O)O)C(=O)N[C@H](C(=O)N[C@@H](Cc1c[nH]c2ccccc12)C(=O)N[C@@H](Cc1c[nH]c2ccccc12)C(=O)NCC(=O)NCC(=O)N[C@@H](C)C(=O)N[C@@H](CC(=O)O)C(=O)N[C@H](C(=O)N[C@@H](CC(=O)O)C(N)=O)[C@@H](C)O)C(C)C` [APPWT] (Ac-EDDSDVWWGGADTD-NH2), which Ki (SD1/2) is on record?
A: 635 nM

Q: And the half-life [3]?
A: > 48 h

Q: What about the Ki [1, 6] of the same compound?
A: 557 ± 9 nM

Q: What about the Ki [1, 5] of the same compound?
A: 557 ± 9 nM

Q: Which Ki (SD1/2) does the source give for `CC(=O)N[C@@H](CCC(=O)O)C(=O)N[C@@H](CC(=O)O)C(=O)N[C@@H](CC(=O)O)C(=O)N[C@@H](CO)C(=O)N[C@@H](CC(=O)O)C(=O)N[C@H](C(=O)N[C@@H](Cc1c[nH]c2ccccc12)C(=O)N[C@@H](Cc1c[nH]c2ccccc12)C(=O)N[C@@H](Cc1ccc(O)cc1)C(=O)NCC(=O)N[C@@H](C)C(=O)N[C@@H](CC(=O)O)C(=O)N[C@H](C(=O)N[C@@H](CC(=O)O)C(N)=O)[C@@H](C)O)C(C)C` (Ac-EDDSDVWWYGADTD-NH2) here?
A: 167 nM

Q: What about the Ki ([1]; Table 10, deep mutational scanning validation variants of APPWT, read-out: Ki (nM) mean ± SEM) of the same compound?
A: 108 ± 1 nM

Q: For `CC[C@H](C)[C@H](NC(=O)[C@H](Cc1ccccc1)NC(=O)[C@H](CCC(=O)O)NC(=O)[C@@H](NC(=O)[C@H](CCC(=O)O)NC(C)=O)[C@@H](C)O)C(=O)N[C@@H](C)C(=O)N[C@@H](Cc1c[nH]c2ccccc12)C(=O)NCC(=O)N1CCC[C@H]1C(=O)N[C@H](C(=O)NCC(=O)N[C@@H](CC(=O)O)C(=O)N[C@@H](CCC(=O)O)C(=O)N[C@@H](CC(=O)O)C(N)=O)[C@@H](C)O` [AJAP-1WT, Ac-ETEFIAWGPTGDED-NH2] (Ac-ETEFIAWGPTGDED-NH2), which “Emax values of GABA-activated GB1a/2Rs” value (GB1a/2 receptors) is on record?
A: did not affect the Emax values

Q: What about the “basal activity of GB1a/2Rs” value [2] of the same compound?
A: elevated basal activity

Q: What about the “pull-down of native GB1a” value (GB1a subunit) of the same compound?
A: ability to bind and enrich full-length GB1a subunit

Q: What about the half-life [4] of the same compound?
A: > 48 h

Q: What about the Ki [1, 5] of the same compound?
A: 31 ± 1 nM

Q: With `CC[C@H](C)[C@H](NC(=O)[C@H](Cc1c[nH]c2ccccc12)NC(=O)[C@H](CC(=O)O)NC(=O)[C@H](CC(=O)O)NC(=O)[C@H](CC(=O)O)NC(=O)[C@H](CCC(=O)O)NC(C)=O)C(=O)N[C@@H](CC(=O)O)C(=O)N[C@@H](Cc1c[nH]c2ccccc12)C(=O)N[C@@H](Cc1ccc(O)cc1)C(=O)N[C@@H](CC(=O)O)C(=O)N[C@@H](CO)C(=O)N[C@@H](CC(=O)O)C(=O)N[C@@H](CC(=O)O)C(=O)N[C@@H](CC(=O)O)C(N)=O` [Peptide 16] (Ac-EDDDWIDWYDSDDD-NH2) as the compound, how does the “Emax values of GABA-activated GB1a/2Rs” value (GB1a/2 receptors) read?
A: did not affect the Emax values

Q: And the “reduction of negative allosteric modulation effects of AJAP-1 at GB1a/2Rs in trans” value [2]?
A: to a greater extent than AJAP-1WT peptide

Q: What about the “basal activity of GB1a/2Rs” value [2] of the same compound?
A: elevated basal activity

Q: And the half-life [4]?
A: > 48 h

Q: What about the Ki ([1]; CPP tagged peptides overview, SD1/2 binding affinity, mean ± SEM, n ≥ 3, read-out: Ki) of the same compound?
A: 3.2 ± 0.2 nM

Q: What about the Ki [1, 6] of the same compound?
A: 3.2 ± 0.2 nM

Q: What about the Ki ([1]; Table 13, peptides for affinity maturation, read-out: Ki (nM) mean ± SEM) of the same compound?
A: 3.2 ± 0.2 nM
